From patent publication US7235379B2, “Method and medium for the detection/identification of microorgranisms with esterase activity” (Bio Merieux, priority 2000, dated 2007)
Several values for one entry are separate records, joined by “and”; a condition that tells them apart may be missing. Equal values may be shown once. Where a name gives a salt, the structure may show the parent alone. Read-outs that look alike come from different tables or passages of the source.

Legend:
[1] = test system: Pseudomonas aeruginosa 165; assay: Ex.1 colony coloration, 5-bromo-3-indolyl nonanoate, DMSO/Tween 20, MacConkey; assay type: cell-based
[2] = test system: Acinetobacter calcoaceticus 034; assay: as above; assay type: cell-based; on intensity of coloration: key: 0: no activity; 0.1: trace of coloration; 0.5: very pale coloration; 1: distinct coloration of low intensity; 2: clear coloration of medium intensity; 3: intense coloration; 4: very intense coloration
[3] = test system: Salmonella paratyphi A 006
Description: (§1) The esterase substrate tested is 5-bromo-3-indolyl nonanoate. A 25 g/l stock solution of substrate is prepared in methanol to which 5 g/l of bile salts have been added. A sufficient volume is added to a supercooled MacConkey medium (without neutral red) to give a substrate concentration of 500 mg/l.
(§2) Microorganisms originating from the Applicant's collection were inoculated onto this medium from a 0.5 McFarland suspension by isolation in three quadrants. The dishes were incubated at 37° C. for 48 hours. The colonies formed were examined visually after 24 and 48 hours of incubation. The coloration of these colonies and the intensity of this coloration were noted.
(§3) Note: In the above Examples, the numbers following the strains correspond to the number of each strain referenced in the Applicant's collection. The intensity of coloration corresponds to an arbitrary scale defined as follows: […]

Salmonella spp. 017 [4] = test system: Salmonella spp. 017
Description: as §1, §2, §3

Salmonella arizonae 018 [5] = assay: Ex.2 colony coloration, 5-bromo-3-indolyl nonanoate, methanol/bile salts, MacConkey; assay type: cell-based; on intensity of coloration: key: 0: no activity; 0.1: trace of coloration; 0.5: very pale coloration; 1: distinct coloration of low intensity; 2: clear coloration of medium intensity; 3: intense coloration; 4: very intense coloration
Enterobacter cloacae 086 = assay: as above; assay type: cell-based
[6] = test system: Listeria monocytogenes 079; assay: Ex.3 colony coloration, 5-bromo-4-chloro-3-indolyl nonanoate 250 mg/l, DMSO/Tween 20; assay type: cell-based; further: key: 0: no activity; 0.1: trace of coloration; 0.5: very pale coloration; 1: distinct coloration of low intensity; 2: clear coloration of medium intensity; 3: intense coloration; 4: very intense coloration
Description: (§4) The esterase substrate tested is 5-bromo-4-chloro-3-indolyl nonanoate. A 40 g/l stock solution of substrate is prepared in a mixture of 40% dimethyl sulfoxide and 60% Tween 20. A sufficient volume is added to a supercooled MacConkey medium (without neutral red) to give a substrate concentration of 250 mg/l.

[7] = test system: Staphylococcus aureus 276; assay: as above; assay type: cell-based; further: key: 0: no activity; 0.1: trace of coloration; 0.5: very pale coloration; 1: distinct coloration of low intensity; 2: clear coloration of medium intensity; 3: intense coloration; 4: very intense coloration
Description: as §4

Salmonella spp. 017 [8] = assay: Ex.4 colony coloration, 5-bromo-3-indolyl nonanoate, DMSO/Tween 20, MacConkey; assay type: cell-based; conditions: 8 ml/l Tergitol 4
Description: This medium is then separated into eight portions. […] Microorganisms originating from the Applicant's collection were inoculated onto this medium from a 0.5 McFarland suspension by isolation in three quadrants. The dishes were incubated at 37° C. for 48 hours. The colonies formed were examined visually after 24 and 48 hours of incubation. The coloration of these colonies and the intensity of this coloration were noted.

Salmonella typhi 118 = assay type: cell-based
Salmonella arizonae 018 [9] = assay: Ex.4 colony coloration, 5-bromo-3-indolyl nonanoate, DMSO/Tween 20, MacConkey; assay type: cell-based; conditions: 8 ml/l Tergitol 4
Escherichia coli 002 = assay: as above; assay type: cell-based; parameters: key: —: absence of colour or intensity; conditions: 8 ml/l Tergitol 4
[10] = test system: bacterial strains exhibiting an esterase activity; conditions: between 2 and 16 ml/l, more precisely between 4 and 8 ml/l
Description: The esterase substrate tested is 5-bromo-3-indolyl nonanoate. A 40 g/l stock solution of substrate is prepared in a mixture of 40% dimethyl sulfoxide and 60% Tween 20. A sufficient volume is added to a supercooled MacConkey medium (without neutral red) to give a substrate concentration of 500 mg/l.
as §2

With CCCCC(CC)CCC(CC(C)C)OS(=O)(=O)O (stereo not shown) [Tergitol 4, 7-ethyl-2-methyl-4-undecanoate hydrogensulfate or its sodium salt] the color ([1]; 2 ml/l, 24 h) was “gray”, the intensity of coloration ([1]; 2 ml/l, 24 h) was 3.5 and the color ([1]; 2 ml/l, 48 h) was “gray”. For the same molecule, the intensity of coloration ([1]; 2 ml/l, 48 h) was 3.5, the color ([1]; 4 ml/l, 24 h) was “gray” and the intensity of coloration ([1]; 4 ml/l, 24 h) was 4. The color ([1]; 4 ml/l, 48 h) was “gray”, the intensity of coloration ([1]; 4 ml/l, 48 h) was 4 and the color ([1]; 8 ml/l, 24 h) was “gray”. For the same molecule, the intensity of coloration ([1]; 8 ml/l, 24 h) was 4, the color ([1]; 8 ml/l, 48 h) was “gray” and the intensity of coloration ([1]; 8 ml/l, 48 h) was 4. For the same molecule, the color ([1]; 16 ml/l, 24 h) was “gray”, the intensity of coloration ([1]; 16 ml/l, 24 h) was 4 and the color ([1]; 16 ml/l, 48 h) was “gray”. The intensity of coloration ([1]; 16 ml/l, 48 h) was 4, the color ([2]; 2 ml/l, 24 h) was “gray” and the intensity of coloration ([2]; 2 ml/l, 24 h) was 2. The color ([2]; 2 ml/l, 48 h) was “gray”, the intensity of coloration ([2]; 2 ml/l, 48 h) was 3 and the color ([2]; 4 ml/l, 24 h) was “gray”. The intensity of coloration ([2]; 4 ml/l, 24 h) was 3, the color ([2]; 4 ml/l, 48 h) was “gray” and the intensity of coloration ([2]; 4 ml/l, 48 h) was 3. For the same molecule, the color ([2]; 8 ml/l, 24 h) was “gray”, the intensity of coloration ([2]; 8 ml/l, 24 h) was 3 and the color ([2]; 8 ml/l, 48 h) was “gray”. The intensity of coloration ([2]; 8 ml/l, 48 h) was 4, the color ([2]; 16 ml/l, 24 h) was “gray” and the intensity of coloration ([2]; 16 ml/l, 24 h) was 0.5. For the same molecule, the color ([2]; 16 ml/l, 48 h) was “gray”, the intensity of coloration ([2]; 16 ml/l, 48 h) was 0.5 and the color ([3]; 2 ml/l, 24 h) was “gray”. The intensity of coloration ([3]; 2 ml/l, 24 h) was 0.1, the color ([3]; 2 ml/l, 48 h) was “gray” and the intensity of coloration ([3]; 2 ml/l, 48 h) was 0.5. The color ([3]; 4 ml/l, 24 h) was “gray”, the intensity of coloration ([3]; 4 ml/l, 24 h) was 0.1 and the color ([3]; 4 ml/l, 48 h) was “gray”. For the same molecule, the intensity of coloration ([3]; 4 ml/l, 48 h) was 1, the color (Salmonella spp. 017 [4]; 2 ml/l, 24 h) was “gray” and the intensity of coloration (Salmonella spp. 017 [4]; 2 ml/l, 24 h) was 1. For the same molecule, the color (Salmonella spp. 017 [4]; 2 ml/l, 48 h) was “gray”, the intensity of coloration (Salmonella spp. 017 [4]; 2 ml/l, 48 h) was 1.5 and the color (Salmonella spp. 017 [4]; 4 ml/l, 24 h) was “gray”. For the same molecule, the intensity of coloration (Salmonella spp. 017 [4]; 4 ml/l, 24 h) was 1, the color (Salmonella spp. 017 [4]; 4 ml/l, 48 h) was “gray” and the intensity of coloration (Salmonella spp. 017 [4]; 4 ml/l, 48 h) was 1.5. The color (Salmonella spp. 017 [4]; 8 ml/l, 24 h) was “gray”, the intensity of coloration (Salmonella spp. 017 [4]; 8 ml/l, 24 h) was 1 and the color (Salmonella spp. 017 [4]; 8 ml/l, 48 h) was “gray”. For the same molecule, the intensity of coloration (Salmonella spp. 017 [4]; 8 ml/l, 48 h) was 1.5, the color (Salmonella spp. 017 [4]; 16 ml/l, 24 h) was “gray” and the intensity of coloration (Salmonella spp. 017 [4]; 16 ml/l, 24 h) was 1. For the same molecule, the color (Salmonella spp. 017 [4]; 16 ml/l, 48 h) was “gray”, the intensity of coloration (Salmonella spp. 017 [4]; 16 ml/l, 48 h) was 1.5 and the color (Salmonella arizonae 018 [5]; 2 ml/l, 24 h) was “gray”. The intensity of coloration (Salmonella arizonae 018 [5]; 2 ml/l, 24 h) was 2.5, the color (Salmonella arizonae 018 [5]; 2 ml/l, 48 h) was “gray” and the intensity of coloration (Salmonella arizonae 018 [5]; 2 ml/l, 48 h) was 3. For the same molecule, the color (Salmonella arizonae 018 [5]; 4 ml/l, 24 h) was “gray”, the intensity of coloration (Salmonella arizonae 018 [5]; 4 ml/l, 24 h) was 2 and the color (Salmonella arizonae 018 [5]; 4 ml/l, 48 h) was “gray”. The intensity of coloration (Salmonella arizonae 018 [5]; 4 ml/l, 48 h) was 2.5, the color (Salmonella arizonae 018 [5]; 8 ml/l, 24 h) was “gray” and the intensity of coloration (Salmonella arizonae 018 [5]; 8 ml/l, 24 h) was 0.5. The color (Salmonella arizonae 018 [5]; 8 ml/l, 48 h) was “gray”, the intensity of coloration (Salmonella arizonae 018 [5]; 8 ml/l, 48 h) was 1.5 and the color (Salmonella arizonae 018 [5]; 16 ml/l, 24 h) was “gray”. For the same molecule, the intensity of coloration (Salmonella arizonae 018 [5]; 16 ml/l, 24 h) was 0.5, the color (Salmonella arizonae 018 [5]; 16 ml/l, 48 h) was “gray” and the intensity of coloration (Salmonella arizonae 018 [5]; 16 ml/l, 48 h) was 2. For the same molecule, the color (Enterobacter cloacae 086; 2 ml/l, 24 h) was “gray”, the intensity of coloration (Enterobacter cloacae 086; 2 ml/l, 24 h) was 0.5 and the color (Enterobacter cloacae 086; 2 ml/l, 48 h) was “gray”. The intensity of coloration (Enterobacter cloacae 086; 2 ml/l, 48 h) was 2, the color (Enterobacter cloacae 086; 4 ml/l, 24 h) was “gray” and the intensity of coloration (Enterobacter cloacae 086; 4 ml/l, 24 h) was 1. For the same molecule, the color (Enterobacter cloacae 086; 4 ml/l, 48 h) was “gray”, the intensity of coloration (Enterobacter cloacae 086; 4 ml/l, 48 h) was 3 and the color (Enterobacter cloacae 086; 8 ml/l, 24 h) was “gray”. The intensity of coloration (Enterobacter cloacae 086; 8 ml/l, 24 h) was 0.5, the color (Enterobacter cloacae 086; 8 ml/l, 48 h) was “gray” and the intensity of coloration (Enterobacter cloacae 086; 8 ml/l, 48 h) was 1. The color (Enterobacter cloacae 086; 16 ml/l, 24 h) was “gray”, the intensity of coloration (Enterobacter cloacae 086; 16 ml/l, 24 h) was 0.5 and the color (Enterobacter cloacae 086; 16 ml/l, 48 h) was “gray”. The intensity of coloration (Enterobacter cloacae 086; 16 ml/l, 48 h) was 1, the intensity of coloration ([6]; 0.001 ml/l, 24 h) was 2 and the intensity of coloration ([6]; 0.001 ml/l, 48 h) was 3. For the same molecule, the intensity of coloration ([6]; 0.01 ml/l, 24 h) was 3, the intensity of coloration ([6]; 0.01 ml/l, 48 h) was 3 and the intensity of coloration ([6]; 0.1 ml/l, 24 h) was 2. The intensity of coloration ([6]; 0.1 ml/l, 48 h) was 3, the intensity of coloration ([6]; 1 ml/l (1st col), 24 h) was 2 and the intensity of coloration ([6]; 1 ml/l (1st col), 48 h) was 3. It also gave an intensity of coloration ([6]; 1 ml/l (2nd col), 24 h) of 2, an intensity of coloration ([6]; 1 ml/l (2nd col), 48 h) of 3 and an intensity of coloration ([7]; 0.001 ml/l, 24 h) of 2. The intensity of coloration ([7]; 0.001 ml/l, 48 h) was 2, the intensity of coloration ([7]; 0.01 ml/l, 24 h) was 2 and the intensity of coloration ([7]; 0.01 ml/l, 48 h) was 3. It also gave an intensity of coloration ([7]; 0.1 ml/l, 24 h) of 3, an intensity of coloration ([7]; 0.1 ml/l, 48 h) of 3 and an intensity of coloration ([7]; 1 ml/l (1st col), 24 h) of 2. The intensity of coloration ([7]; 1 ml/l (1st col), 48 h) was 3, the intensity of coloration ([7]; 1 ml/l (2nd col), 24 h) was 2 and the intensity of coloration ([7]; 1 ml/l (2nd col), 48 h) was 3. For the same molecule, the color (Salmonella spp. 017 [8]; 24 h) was “gray”, the intensity of coloration (Salmonella spp. 017 [8]; 24 h) was 2.5 and the color (Salmonella spp. 017 [8]; 48 h) was “gray”. The intensity of coloration (Salmonella spp. 017 [8]; 48 h) was 3.5, the color (Salmonella typhi 118) was “gray” and the intensity of coloration (Salmonella typhi 118; sodium salt) was 3 and 3.5. The color (Salmonella arizonae 018 [9]; 24 h) was “gray”, the intensity of coloration (Salmonella arizonae 018 [9]; 24 h) was 3.5 and the color (Salmonella arizonae 018 [9]; 48 h) was “gray”. For the same molecule, the intensity of coloration (Salmonella arizonae 018 [9]; 48 h) was 3.5, the color (Escherichia coli 002; 24 h) was “—” and the color (Escherichia coli 002; 48 h) was “—”. The “effect on intensity of coloration” value [10] was “significantly increases the intensity of coloration”.
